Measured values taken from US5073627A (Immunex Corporation, priority 1990, dated 1991).

Legend:
[1] = tested on: unfractionated human bone marrow; experiment: Human bone marrow colony formation (CFU-GEMM, CFU-GM, BFU-E); format: cell-based; conditions: for Colonies (Mean ± S.D.) CFU-GM: agar
Experimental: Non-adherent, low density, T cell deplated cultures of human bone marrow were plated in methylcellulose (BFU-E, CFU-GEMM, 40,000 cells per plate) or agar (CFU-GM; 40,000 cells per culture) as described by Lu et al., Blood 61:250 (1983). Methylcellulose cultures contained 1 unit per plate erythropoietin and accounts for the background of 48±2 BFU-E in the absence of cytokine. Cultures were incubated in a 5% O2, 5% CO2, 90% N2 atmosphere for 14 days and counted with an inverted microscope.

AML-193 cells = experiment: Thymidine incorporation assay, proliferation of AML-193 cells; format: cell-based, human; conditions: for Specific Activity: one unit = amount of growth factor for half-maximal thymidine incorporation, AML-193 cells
Experimental: The cells were split twice weekly and were seeded into fresh medium at a density of 300,000/ml.
These samples were then serially diluted by 3-fold through the additional 11 wells of the microtitre plate. […] Tritiated thymidine ([…]) was added to each well for an additional 6 hours of incubation and the samples were harvested with an automated sample harvester and counted by liquid scintillation. One unit of activity is defined as the amount of growth factor required to stimulate half-maximal thymidine incorporation.

[2] = biological target: T1, receptors on AML-193 cells (GM-CSF/IL-3 receptors) (Homo sapiens, UniProt P26951+P32927); experiment: Inhibition of 125I-IL-3 binding to AML-193 cells; conditions: normalized data, JM-1 as standard
T1 construct: endogenous in cells; host or cells: AML-193
T1 sequence (P26951 19-378): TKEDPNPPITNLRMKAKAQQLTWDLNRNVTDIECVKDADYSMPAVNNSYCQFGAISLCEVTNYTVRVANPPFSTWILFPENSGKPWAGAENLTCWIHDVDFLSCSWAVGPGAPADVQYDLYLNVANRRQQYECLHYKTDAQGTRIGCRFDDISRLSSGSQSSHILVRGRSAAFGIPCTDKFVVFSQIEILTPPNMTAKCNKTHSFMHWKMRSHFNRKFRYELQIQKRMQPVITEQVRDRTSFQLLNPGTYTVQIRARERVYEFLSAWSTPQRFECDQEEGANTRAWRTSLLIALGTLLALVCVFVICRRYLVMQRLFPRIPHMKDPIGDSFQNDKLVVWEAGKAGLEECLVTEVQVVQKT
T1 sequence (P32927 17-897): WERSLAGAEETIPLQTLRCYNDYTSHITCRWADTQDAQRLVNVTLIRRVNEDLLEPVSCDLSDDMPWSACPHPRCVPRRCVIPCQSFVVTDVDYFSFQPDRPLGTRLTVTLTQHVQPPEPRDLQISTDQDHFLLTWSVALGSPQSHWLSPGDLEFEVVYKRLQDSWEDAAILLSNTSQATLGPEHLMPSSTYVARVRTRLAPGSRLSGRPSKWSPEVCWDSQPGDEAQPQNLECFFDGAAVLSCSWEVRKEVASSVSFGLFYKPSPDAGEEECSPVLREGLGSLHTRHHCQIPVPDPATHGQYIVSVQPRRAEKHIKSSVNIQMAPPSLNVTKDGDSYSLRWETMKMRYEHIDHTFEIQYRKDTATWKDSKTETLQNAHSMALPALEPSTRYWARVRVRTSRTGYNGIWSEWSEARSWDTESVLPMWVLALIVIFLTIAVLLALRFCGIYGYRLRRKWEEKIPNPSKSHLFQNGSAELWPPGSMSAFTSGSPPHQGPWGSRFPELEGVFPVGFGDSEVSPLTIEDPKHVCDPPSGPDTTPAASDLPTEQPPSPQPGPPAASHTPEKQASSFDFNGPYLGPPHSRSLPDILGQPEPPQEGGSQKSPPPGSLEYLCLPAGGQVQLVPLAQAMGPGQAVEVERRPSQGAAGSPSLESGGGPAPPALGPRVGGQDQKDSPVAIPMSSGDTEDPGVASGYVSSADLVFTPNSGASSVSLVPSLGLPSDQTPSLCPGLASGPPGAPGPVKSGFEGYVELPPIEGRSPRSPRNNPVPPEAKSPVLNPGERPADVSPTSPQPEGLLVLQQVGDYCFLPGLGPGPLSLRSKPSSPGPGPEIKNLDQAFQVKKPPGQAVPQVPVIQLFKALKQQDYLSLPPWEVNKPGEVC
Experimental: (§1) Briefly, 2-10 μg of recombinant protein in 50 μl 0.2M sodium phosphate, pH 7.2, was combined with 50 μl enzymobead reagent, 2 mCi of sodium iodide in 20 μl of 0.05M sodium phosphate pH 7 and 10 μl of 2.5% β-D-glucose. After 10 min at 25° C., sodium azide (10 μl of 50 mM) and sodium metabisulfite (10 μl of 5 mg/ml) were added sequentially and incubation continued for 5 minutes at 25° C.
(§2) B. Binding Assays. Binding assays were performed using JM-1, KG-1, HL-60 and AML-193 cells.

[3] = biological target: T2, receptors on KG-1 cells (GM-CSF/IL-3 receptors) (Homo sapiens, UniProt P26951+P32927); experiment: Inhibition of 125I-IL-3 binding to KG-1 cells; conditions: for KI value on KG-1 cells relative to JM-1 cells: Table F data
T2 construct: endogenous in cells; host or cells: KG-1
T2 sequence (P26951 19-378): T1 sequence (P26951 19-378)
T2 sequence (P32927 17-897): T1 sequence (P32927 17-897)
Experimental: as §1, §2

[4] = Table D, 312 pg/ml (GM-CSF + IL-3: 312 + 312), 14 days
[5] = Table D, 625 pg/ml (GM-CSF + IL-3: 625 + 625), 14 days
[6] = Table D, 625 pg/ml (GM-CSF + IL-3: 625 + 625), with erythropoietin, background 48 ± 2
[7] = Table D, 1250 pg/ml (GM-CSF + IL-3: 1250 + 1250), 14 days
[8] = Table D, 1250 pg/ml (GM-CSF + IL-3: 1250 + 1250), with erythropoietin, background 48 ± 2
[9] = Table D, 2500 pg/ml (GM-CSF + IL-3: 2500 + 2500), 14 days
[10] = Table D, 2500 pg/ml (GM-CSF + IL-3: 2500 + 2500), with erythropoietin, background 48 ± 2
[11] = Table D, 5000 pg/ml (GM-CSF + IL-3: 5000 + 5000), 14 days
[12] = Table D, 5000 pg/ml (GM-CSF + IL-3: 5000 + 5000), with erythropoietin, background 48 ± 2
[13] = Table D, 156 pg/ml (GM-CSF + IL-3: 156 ± 156 [sic]), 14 days

Substance: GM-CSF: recombinant human granulocyte-macrophage colony-stimulating factor expressed in yeast, comparator
- Colonies (Mean ± S.D.) CFU-GEMM [1, 4]: 0 colonies
- Colonies (Mean ± S.D.) CFU-GM [1, 4]: 16 ± 1 colonies
- Colonies (Mean ± S.D.) CFU-GEMM [1, 5]: 0.3 ± 0.3 colonies
- Colonies (Mean ± S.D.) CFU-GM [1, 5]: 21 ± 2 colonies
- Colonies (Mean ± S.D.) BFU-E [1, 6]: 46 ± 3 colonies
- Colonies (Mean ± S.D.) CFU-GEMM [1, 7]: 1.5 ± 0.3 colonies
- Colonies (Mean ± S.D.) CFU-GM [1, 7]: 33 ± 2 colonies
- Colonies (Mean ± S.D.) BFU-E [1, 8]: 47 ± 4 colonies
- Colonies (Mean ± S.D.) CFU-GEMM [1, 9]: 3.5 ± 0.7 colonies
- Colonies (Mean ± S.D.) CFU-GM [1, 9]: 42 ± 2 colonies
- Colonies (Mean ± S.D.) BFU-E [1, 10]: 61 ± 1 colonies
- Colonies (Mean ± S.D.) CFU-GEMM [1, 11]: 6.8 ± 0.6 colonies
- Colonies (Mean ± S.D.) CFU-GM [1, 11]: 42 ± 4 colonies
- Colonies (Mean ± S.D.) BFU-E [1, 12]: 63 ± 3 colonies
- Specific Activity (AML-193 cells): 9.74 × 10^4 units/mg

Substance: huGM-CSF[Leu^23 Asp^27 Glu^39 ]/Gly4 SerGly5 Ser/huIL-3[Pro^8 Asp^15 Asp^70 ] [GM-CSF/IL-3]
- Binding affinity to AML-193 cells relative to JM-1 cells [2]: 11.1 fold
- KI value on KG-1 cells relative to JM-1 cells [3]: 10-20 fold
- Binding affinity to KG-1 cells relative to JM-1 cells ([3]; normalized data, JM-1 as standard): 41.0 fold
- BFU-E, CFU-GM and CFU-GEMM colony formation relative to IL-3 or GM-CSF alone, or IL-3 and GM-CSF combined ([1]; FIG. 3A-3D): enhances
- Colonies (Mean ± S.D.) CFU-GEMM ([1]; Table D, 78 pg/ml, 14 days): 0 colonies
- Colonies (Mean ± S.D.) CFU-GM ([1]; Table D, 78 pg/ml, 14 days): 16 ± 2 colonies
- Colonies (Mean ± S.D.) BFU-E ([1]; Table D, 78 pg/ml, with erythropoietin, background 48 ± 2): 50 ± 3 colonies
- Colonies (Mean ± S.D.) CFU-GEMM [1, 13]: 1.0 ± 0.4 colonies
- Colonies (Mean ± S.D.) CFU-GM [1, 13]: 24 ± 3 colonies
- Colonies (Mean ± S.D.) BFU-E ([1]; Table D, 156 pg/ml (GM-CSF + IL-3: 156 ± 156 [sic]), with erythropoietin, background 48 ± 2): 49 ± 6 colonies
- Colonies (Mean ± S.D.) CFU-GEMM [1, 4]: 2.5 ± 0.7 colonies
- Colonies (Mean ± S.D.) CFU-GM [1, 4]: 35 ± 2 colonies
- Colonies (Mean ± S.D.) BFU-E ([1]; Table D, 312 pg/ml (GM-CSF + IL-3: 312 + 312), with erythropoietin, background 48 ± 2): 70 ± 4 colonies
- Colonies (Mean ± S.D.) CFU-GEMM [1, 5]: 4.3 ± 0.5 colonies
- Colonies (Mean ± S.D.) CFU-GM [1, 5]: 52 ± 6 colonies
- Colonies (Mean ± S.D.) BFU-E [1, 6]: 83 ± 5 colonies
- Colonies (Mean ± S.D.) CFU-GEMM [1, 7]: 6.8 ± 0.5 colonies
- Colonies (Mean ± S.D.) CFU-GM [1, 7]: 59 ± 2 colonies
- Colonies (Mean ± S.D.) BFU-E [1, 8]: 125 ± 8 colonies
- Colonies (Mean ± S.D.) CFU-GEMM [1, 9]: 10.3 ± 0.9 colonies
- Colonies (Mean ± S.D.) CFU-GM [1, 9]: 74 ± 1 colonies
- Colonies (Mean ± S.D.) BFU-E [1, 10]: 119 ± 5 colonies
- Colonies (Mean ± S.D.) CFU-GEMM [1, 11]: 10.3 ± 1 colonies
- Colonies (Mean ± S.D.) CFU-GM [1, 11]: 97 ± 2 colonies
- Colonies (Mean ± S.D.) BFU-E [1, 12]: 107 ± 5 colonies
- Colonies (Mean ± S.D.) CFU-GM ([1]; Table E, 78 pg/ml): 2 ± 0.3 colonies
- Colonies (Mean ± S.D.) CFU-GEMM ([1]; Table E, 78 pg/ml, media control 2 ± 0): 2.0 ± 0 colonies
- Colonies (Mean ± S.D.) BFU-E ([1]; Table E, 78 pg/ml, media control 44 ± 4): 44 ± 1 colonies
- Colonies (Mean ± S.D.) CFU-GM ([1]; Table E, 156 pg/ml (GM-CSF + IL-3: 156 + 156)): 5 ± 1 colonies
- Colonies (Mean ± S.D.) CFU-GEMM ([1]; Table E, 156 pg/ml, media control 2 ± 0): 2.0 ± 1 colonies
- Colonies (Mean ± S.D.) BFU-E ([1]; Table E, 156 pg/ml, media control 44 ± 4): 47 ± 3 colonies
- Colonies (Mean ± S.D.) CFU-GM ([1]; Table E, 312 pg/ml (GM-CSF + IL-3: 312 + 312)): 8 ± 1 colonies
- Colonies (Mean ± S.D.) CFU-GEMM ([1]; Table E, 312 pg/ml, media control 2 ± 0): 5.5 ± 0.5 colonies
- Colonies (Mean ± S.D.) BFU-E ([1]; Table E, 312 pg/ml, media control 44 ± 4): 71 ± 1 colonies
- Colonies (Mean ± S.D.) CFU-GM ([1]; Table E, 625 pg/ml (GM-CSF + IL-3: 625 + 625)): 15 ± 2 colonies
- Colonies (Mean ± S.D.) CFU-GEMM ([1]; Table E, 625 pg/ml (GM-CSF + IL-3: 625 + 625), media control 2 ± 0): 6.0 ± 1 colonies
- Colonies (Mean ± S.D.) BFU-E ([1]; Table E, 625 pg/ml (GM-CSF + IL-3: 625 + 625), media control 44 ± 4): 97 ± 2 colonies
- Colonies (Mean ± S.D.) CFU-GM ([1]; Table E, 1250 pg/ml (GM-CSF + IL-3: 1250 + 1250)): 23 ± 2 colonies
- Colonies (Mean ± S.D.) CFU-GEMM ([1]; Table E, 1250 pg/ml (GM-CSF + IL-3: 1250 + 1250), media control 2 ± 0): 9.0 ± 0 colonies
- Colonies (Mean ± S.D.) BFU-E ([1]; Table E, 1250 pg/ml (GM-CSF + IL-3: 1250 + 1250), media control 44 ± 4): 127 ± 7 colonies
- Colonies (Mean ± S.D.) CFU-GM ([1]; Table E, 2500 pg/ml (GM-CSF + IL-3: 2500 + 2500)): 45 ± 5 colonies
- Colonies (Mean ± S.D.) CFU-GEMM ([1]; Table E, 2500 pg/ml (GM-CSF + IL-3: 2500 + 2500), media control 2 ± 0): 10.0 ± 1 colonies
- Colonies (Mean ± S.D.) BFU-E ([1]; Table E, 2500 pg/ml (GM-CSF + IL-3: 2500 + 2500), media control 44 ± 4): 125 ± 10 colonies
- Colonies (Mean ± S.D.) CFU-GM ([1]; Table E, 5000 pg/ml (GM-CSF + IL-3: 5000 + 5000)): 43 ± 5 colonies
- Potency in enhancing proliferation of unfractionated human bone marrow cells ([1]; summary of Tables D and E): equivalent in potentcy to a mixture of GM-CSF and IL-3
- Specific activity relative to IL-3 or GM-CSF alone or GM-CSF plus IL-3 combined (AML-193 cells; AML-193 thymidine incorporation): approximately 10 fold
- Specific Activity (AML-193 cells): 1.81 × 10^6 units/mg

Substance: huIL-3[Pro^8 Asp^15 Asp^70 ]/huGM-CSF[Leu^23 Asp^27 Glu^39 ] [IL-3/GM-CSF]
- KI value on KG-1 cells relative to JM-1 cells [3]: 10-20 fold
